A word on the LogP: it is the decadic logarithm of the partition coefficient of the neutral form, usually between octanol and water.

This is an account of results in US8735323B2, “Fungicide N-5-membered fused heteroaryl-methylene-N-cycloalkyl-carboxamide derivatives” (Bayer Cropscience AG, priority 2007, dated 2014).

A short description of the series: logP determination by HPLC on reversed-phase column (C 18), EEC Directive 79/831 Annex V.A8. The conditions noted are these: C 18 reversed-phase, 40° C., 0.1% aqueous formic acid and acetonitrile gradient. In kind it is physicochemical. How it is done:
In the following table, the logP values were determined in accordance with EEC Directive 79/831 Annex V.A8 by HPLC (High Performance Liquid Chromatography) on a reversed-phase column (C 18), using the method described below: Temperature: 40° C.; Mobile phases: 0.1% aqueous formic acid and acetonitrile; linear gradient from 10% acetonitrile to 90% acetonitrile. Calibration was carried out using unbranched alkan-2-ones (comprising 3 to 16 carbon atoms) with known logP values (determination of the logP values by the retention times using linear interpolation between two successive alkanones).

`CCc1nn(C)c(F)c1C(=O)N(Cc1cn(-c2ccccc2)c2ccccc12)C1CC1` [Compound 29] yielded a log partition coefficient (LogP) of 3.89.
